Assay results reported in PubChem BioAssay AID328 (DTP/NCI, 2004).
Where “and” joins values, the source holds several entries; their conditions need not be identical. Equal values may be shown once. Toxic doses and inconclusive results are not listed. How the source made its calls: active means survival T/C of 150% or more; inactive means T/C below 125% in these data.

Tested on: BDF1 mice, P388 leukemia ip, median survival T/C
Test: NCI In Vivo Anticancer Drug Screen. Data for tumor model P388 Leukemia (intraperitoneal) in B6D2F1 (BDF1) mice
Conditions: endpoint: median survival time, higher = longer survival
Method in brief: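 T/C = treated-group survival ÷ vehicle-control survival; tumour transplanted into mice before dosing.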

[1] = dose: 100.0 mg/kg/injection, schedule: Q01DX009 (ip), vehicle: saline
[2] = dose: 100.0 mg/kg/injection, schedule: Q04DX003 (ip), vehicle: saline with Tween-80
[3] = dose: 200.0 mg/kg/injection, schedule: Q01DX009 (ip), vehicle: saline
[4] = dose: 200.0 mg/kg/injection, schedule: Q04DX003 (ip), vehicle: saline with Tween-80
[5] = dose: 400.0 mg/kg/injection, schedule: Q04DX003 (ip), vehicle: saline with Tween-80
[6] = dose: 100.0 mg/kg/injection, schedule: Q01DX001 (ip), vehicle: saline with Tween-80
[7] = dose: 200.0 mg/kg/injection, schedule: Q01DX001 (ip), vehicle: saline with Tween-80
[8] = dose: 100.0 mg/kg/injection, schedule: Q04DX003 (ip), vehicle: saline sonified
[9] = dose: 12.5 mg/kg/injection, schedule: Q01DX009 (ip), vehicle: Klucel (hydroxypropylcellulose) (HPC)
[10] = dose: 25.0 mg/kg/injection, schedule: Q01DX009 (ip), vehicle: Klucel (hydroxypropylcellulose) (HPC)
[11] = dose: 50.0 mg/kg/injection, schedule: Q01DX009 (ip), vehicle: Klucel (hydroxypropylcellulose) (HPC)
[12] = dose: 100.0 mg/kg/injection, schedule: Q04DX003 (ip), vehicle: Klucel (hydroxypropylcellulose) (HPC)
[13] = dose: 400.0 mg/kg/injection, schedule: Q04DX003 (ip), vehicle: Klucel (hydroxypropylcellulose) (HPC)
[14] = dose: 200.0 mg/kg/injection, schedule: Q04DX003 (ip), vehicle: Klucel (hydroxypropylcellulose) (HPC)
[15] = dose: 50.0 mg/kg/injection, schedule: Q01DX009 (ip), vehicle: saline with Tween-80
[16] = dose: 50.0 mg/kg/injection, schedule: Q01DX001 (ip), vehicle: saline
[17] = dose: 100.0 mg/kg/injection, schedule: Q01DX001 (ip), vehicle: saline
[18] = dose: 50.0 mg/kg/injection, schedule: Q01DX009 (ip), vehicle: saline
[19] = dose: 50.0 mg/kg/injection, schedule: Q04DX003 (ip), vehicle: saline sonified
[20] = dose: 200.0 mg/kg/injection, schedule: Q04DX003 (ip), vehicle: saline

Measured: T/C

Ic1ncnc2nc[nH]c12
inactive: dose: 75.0 mg/kg/injection, schedule: Q01DX009 (ip), vehicle: Klucel (hydroxypropylcellulose) (HPC) 113 % of control | [1] 104 % of control | [2] 95 % of control | dose: 150.0 mg/kg/injection, schedule: Q01DX009 (ip), vehicle: Klucel (hydroxypropylcellulose) (HPC) 113 % of control | [3] 108 % of control | [4] 104 % of control | dose: 300.0 mg/kg/injection, schedule: Q01DX009 (ip), vehicle: Klucel (hydroxypropylcellulose) (HPC) 109 % of control | dose: 400.0 mg/kg/injection, schedule: Q01DX009 (ip), vehicle: saline 100 % of control | [5] 95 % of control

O=C(O)c1onc2ccccc12
inactive: [6] 113 % of control | [7] 90 % of control

O=[N+]([O-])c1ccccc1CN1c2ccccc2N=C2c3ccccc3CC21 (centres undefined)
inactive: [8] 116 % of control | dose: 200.0 mg/kg/injection, schedule: Q04DX003 (ip), vehicle: saline sonified 100 % of control | dose: 400.0 mg/kg/injection, schedule: Q04DX003 (ip), vehicle: saline sonified 91 % of control

CN(C)c1ccc(C=O)c(Br)c1
inactive: [9] 109 % of control | [10] 90 % of control | [11] 86 % of control | [12] 90 % of control | [13] 104 % of control

COC(CCC#N)c1ccc(C)cc1 (centres undefined)
inactive: dose: 25.0 mg/kg/injection, schedule: Q04DX003 (sc), vehicle: olive oil, sesame oil, peanut oil 100 % of control | dose: 50.0 mg/kg/injection, schedule: Q04DX003 (sc), vehicle: olive oil, sesame oil, peanut oil 95 % of control | dose: 100.0 mg/kg/injection, schedule: Q04DX003 (sc), vehicle: olive oil, sesame oil, peanut oil 100 % of control

NCCCCC1NC(=O)C(CCCCN)NC1=O (centres undefined)
inactive: dose: 50.0 mg/kg/injection, schedule: Q01DX005 (ip), vehicle: saline 105 % of control | dose: 100.0 mg/kg/injection, schedule: Q01DX005 (ip), vehicle: saline 105 % of control | dose: 200.0 mg/kg/injection, schedule: Q01DX005 (ip), vehicle: saline 95 % of control

O=C1OC(c2ccccc2)=N/C1=C/c1cccs1
inactive: dose: 100.0 mg/kg/injection, schedule: Q01DX009 (ip), vehicle: Klucel (hydroxypropylcellulose) (HPC) 96 % of control | dose: 200.0 mg/kg/injection, schedule: Q01DX009 (ip), vehicle: Klucel (hydroxypropylcellulose) (HPC) 88 % of control | dose: 400.0 mg/kg/injection, schedule: Q01DX009 (ip), vehicle: Klucel (hydroxypropylcellulose) (HPC) 92 % of control

O=C(NCCBr)Nc1cccc2c1Cc1ccccc1-2
inactive: [12] 100 % of control | [14] 100 % of control | [13] 95 % of control

O=C1OC(Cc2ccccc2)(c2ccccc2)c2ccccc21 (centres undefined)
inactive: [15] 90 % of control | dose: 100.0 mg/kg/injection, schedule: Q01DX009 (ip), vehicle: saline with Tween-80 90 % of control

C/C(c1nc(N)nc(N)c1-c1ccc(Cl)cc1)=[N+](\C)[O-]
inactive: [6] 95 % of control | [7] 104 % of control | dose: 400.0 mg/kg/injection, schedule: Q01DX001 (ip), vehicle: saline with Tween-80 97 % of control

O=Cc1ccc([N+](=O)[O-])s1
inactive: dose: 3.13 mg/kg/injection, schedule: Q01DX009 (ip), vehicle: saline with Tween-80 99 % of control | dose: 6.25 mg/kg/injection, schedule: Q01DX009 (ip), vehicle: saline with Tween-80 99 % of control and 118 % of control | dose: 12.5 mg/kg/injection, schedule: Q01DX009 (ip), vehicle: saline with Tween-80 115 % of control | dose: 25.0 mg/kg/injection, schedule: Q01DX009 (ip), vehicle: saline with Tween-80 123 % of control | [15] 118 % of control

CCOc1ccc2nnnn2n1
inactive: dose: 62.5 mg/kg/injection, schedule: Q01DX009 (ip), vehicle: saline 100 % of control | dose: 250.0 mg/kg/injection, schedule: Q01DX009 (ip), vehicle: saline 97 % of control

CC(=O)Nc1c(C)cc(C)cc1C
inactive: [12] 104 % of control | [14] 100 % of control | [13] 118 % of control

CC(C)=NNC(=O)C1CCN1Cc1ccccc1 (centres undefined)
inactive: [16] 102 % of control | [17] 98 % of control | dose: 200.0 mg/kg/injection, schedule: Q01DX001 (ip), vehicle: saline 93 % of control | dose: 400.0 mg/kg/injection, schedule: Q01DX001 (ip), vehicle: saline 102 % of control

CC(O)C(N)C(=O)NCCc1nc(-c2nc(C(=O)NCCCBr)cs2)cs1 (centres undefined)
inactive: [18] 106 % of control | [1] 94 % of control | [3] 103 % of control

Cc1ccnc(NC(=O)Nc2cc(Cl)ccc2Cl)c1
inactive: [9] 101 % of control | [10] 103 % of control | [11] 120 % of control

COc1cccc(C(O)c2ccncc2)c1OC (centres undefined)
inactive: dose: 25.0 mg/kg/injection, schedule: Q04DX003 (ip), vehicle: water 113 % of control | dose: 50.0 mg/kg/injection, schedule: Q04DX003 (ip), vehicle: water 108 % of control | dose: 100.0 mg/kg/injection, schedule: Q04DX003 (ip), vehicle: water 103 % of control | dose: 200.0 mg/kg/injection, schedule: Q04DX003 (ip), vehicle: water 90 % of control | dose: 400.0 mg/kg/injection, schedule: Q04DX003 (ip), vehicle: water 97 % of control

O=CC(=O)c1ccc(O)cc1
inactive: [19] 109 % of control | dose: 300.0 mg/kg/injection, schedule: Q04DX003 (ip), vehicle: saline with Tween-80 86 % of control

OCC#CC#CCO
inactive: dose: 25.0 mg/kg/injection, schedule: Q01DX001 (ip), vehicle: saline 95 % of control | [16] 118 % of control | [17] 100 % of control and 109 % of control

CC(C)/[N+]([O-])=C/C=C/c1ccccc1
inactive: [12] 100 % of control | [14] 100 % of control | [13] 113 % of control

O=S(=O)(CCl)OCCCCOS(=O)(=O)CCl
inactive: dose: 66.0 mg/kg/injection, schedule: Q01DX009 (ip), vehicle: saline 104 % of control

C=C1C/C(=C/C)C(=O)O[C@@H]2CCN3CC=C(COC(=O)[C@]1(C)O)[C@H]23
inactive: dose: 25.0 mg/kg/injection, schedule: Q01DX010 (ip), vehicle: carboxymethylcellulose (CMC) 111 % of control | dose: 50.0 mg/kg/injection, schedule: Q01DX010 (ip), vehicle: carboxymethylcellulose (CMC) 111 % of control | dose: 100.0 mg/kg/injection, schedule: Q01DX010 (ip), vehicle: carboxymethylcellulose (CMC) 111 % of control

N#CCC(=O)O
inactive: dose: 18.75 mg/kg/injection, schedule: Q01DX009 (ip), vehicle: saline with Tween-80 100 % of control | dose: 37.5 mg/kg/injection, schedule: Q01DX009 (ip), vehicle: saline with Tween-80 100 % of control | dose: 75.0 mg/kg/injection, schedule: Q01DX009 (ip), vehicle: saline with Tween-80 90 % of control

NC(=O)CC[n+]1ccccc1
inactive: dose: 12.5 mg/kg/injection, schedule: Q01DX009 (ip), vehicle: saline 94 % of control | dose: 25.0 mg/kg/injection, schedule: Q01DX009 (ip), vehicle: saline 100 % of control | [18] 99 % of control

CC1CC(C)(C)CC2CC(C(=O)O)(C(=O)O)CC12 (centres undefined)
inactive: dose: 25.0 mg/kg/injection, schedule: Q04DX003 (ip), vehicle: saline sonified 110 % of control | [19] 100 % of control | [8] 100 % of control

Cc1ccc2nc(-c3ccccc3N)[nH]c2c1
inactive: [2] 100 % of control | [4] 104 % of control | [5] 90 % of control

CN(C)c1nn2c(-c3ccccc3)nnc2o1
inactive: [20] 105 % of control | dose: 400.0 mg/kg/injection, schedule: Q04DX003 (ip), vehicle: saline 120 % of control

Cc1ccc2ccccc2n1
inactive: dose: 100.0 mg/kg/injection, schedule: Q04DX003 (ip), vehicle: saline 87 % of control | [20] 91 % of control
